Tests used:
[1] = test system: ECV; test: Proliferation assay using bladder cancer cell lines, ECV; format: cell-based, human; conditions: Homo sapiens; 72 h culture, CyQuant proliferation assay
[2] = test system: rats with CYP-induced cystitis; test: Cyclophosphamide (CYP) induced chronic IC in rats, cystometry; format: in vivo, Wistar rats
From the text: The rat model of chemical cystitis induced by intraperitoneal injection of CYP has been well accepted. CYP is used in clinical practice in the treatment of a number of malignant tumors. One of its metabolites, acrolein, is excreted in urine in large concentrations causing hemorrhagic cystitis associated with symptoms of urinary frequency, urgency and pelvic pain. The inflammatory process is characterized by changes in gross histology of bladder, increase in number and distribution of inflammatory cell infiltrates (mast cells, macrophage, PMNs), cyclo-oxygenase-2 expression and prostaglandin production, growth factor and cytokine production. […]
This model was used to test the effects of 1,25-dihydroxyvitamin D3 analogue in rats with CYP-induced cystitis. The effects of the treatment on the cystometric parameters in a conscious freely moving rat with CYP-induced cystitis were monitored. The following cystometric parameters were recorded in each animal: bladder capacity, filling pressure (pressure at the beginning of the bladder filling), threshold pressure (bladder pressure immediately prior to micturition), micturition pressure (the maximal bladder pressure during micturition), presence or absence of non-voiding bladder contractions (increases in bladder pressure of at least 10 cm H20 without release of urine), and amplitude of non-voiding bladder contraction. […]

[3] = Determination of Maximum Tolerated Dose (MTD)
Procedure: The maximum tolerated dose of the vitamin D3 compounds of the invention were determined in eight week-old female C57BL/6 mice (3 mice/group) dosed orally (0.1 ml/mouse) with various concentrations of Vitamin D3 analogs daily for four days. Analogs were formulated in miglyol for a final concentration of 0.01, 0.03, 0.1 0.3, 1, 3, 10, 30, 100 and 300 μg/kg when given at 0.1 ml/mouse p.o. daily. Blood for serum calcium assay was drawn by tail bleed on day five, the final day of the study.

[4] = NOD mouse body weight; format: in vivo, mice
Procedure: 1,3-Di-O-acetyl-1,25-dihydroxy-16,23Z-diene-26,27-hexafluoro-19-nor-cholecalciferol (2) was dissolved in ethanol (1 mg/ml) and then diluted in miglyol 812. […]

[5] = test system: IFN-γ production; test: IFN-γ production in the mixed leukocyte response (MLR); format: cell-based; conditions: 120 h; allogeneic PBMC from 2 donors, 5 days, ELISA; read-out: INF-γ IC50
Procedure: Immature dendritic cells (DC) were prepared as described in Romani, N. et al. (Romani, N. et al. (1996) J. Immunol. Meth. 196:137). IFN-γ production by allogeneic T cell activation in the mixed leukocyte response (MLR) was determined as described in Penna, G., et al., J Immunol., 164: 2405-2411 (2000).
Briefly, peripheral blood mononuclear cells (PBMC) were separated from buffy coats by Ficoll gradient and the same number (3×10^5) of allogeneic PBMC from 2 different donors were co-cultured in 96-well flat-bottom plates. The vitamin D3 compounds were added to each of the cultures.

Structure (SMILES): CC(=O)OC1C/C(=C/C=C2\CCC[C@]3(C)C(C(C)C/C=C\C(O)(C(F)(F)F)C(F)(F)F)=CCC23)C[C@@H](OC(C)=O)C1 (some centres unmarked) [Compound (2), 1,3-Di-O-acetyl-1,25-dihydroxy-16,23Z-diene-26,27-hexafluoro-19-nor-cholecalciferol]
- IC50 [1]: 55 µM
- ability to treat bladder dysfunction [2]: has the ability to treat bladder dysfunction
- MTD at 4 days ([3]; female, C57BL/6, mouse, in vivo, po): 0.1 µg/kg
- MTD relative to compound (1) ([3]; mice, MTD of (2) versus parent (1)): more than 300 times
- MTD compared with the corresponding dihydroxy (parent) compound ([3]; versus (1) or (3)): significantly higher
- effect on body weight ([4]; 0.1 mg/Kg or 0.2 mg/Kg dose): did not affect body weight
- NOD mouse body weight ([4]; 0.1 mg/kg p.o., week 8): 22.07 g
- NOD mouse body weight ([4]; 0.1 mg/kg p.o., week 9): 22.98 g
- NOD mouse body weight ([4]; 0.1 mg/kg p.o., week 10): 22.77 g
- NOD mouse body weight ([4]; 0.1 mg/kg p.o., week 11): 23.4 g
- NOD mouse body weight ([4]; 0.1 mg/kg p.o., week 12): 24.01 g
- NOD mouse body weight ([4]; 0.1 mg/kg p.o., week 13): 23.69 g
- NOD mouse body weight ([4]; 0.1 mg/kg p.o., week 14): 24.1 g
- NOD mouse body weight ([4]; 0.1 mg/kg p.o., week 15): 24.6 g
- NOD mouse body weight ([4]; 0.1 mg/kg p.o., week 16): 25 g
- NOD mouse body weight ([4]; 0.1 mg/kg p.o., week 17): 24.6 g
- NOD mouse body weight ([4]; 0.1 mg/kg p.o., week 18): 25.1 g
- NOD mouse body weight ([4]; 0.1 mg/kg p.o., week 19): 25.6 g
- NOD mouse body weight ([4]; 0.1 mg/kg p.o., week 20): 25.2 g
- NOD mouse body weight ([4]; 0.1 mg/kg p.o., week 21): 25.6 g
- NOD mouse body weight ([4]; 0.1 mg/kg p.o., week 22): 25.8 g
- NOD mouse body weight ([4]; 0.1 mg/kg p.o., week 23): 25.5 g
- NOD mouse body weight ([4]; 0.1 mg/kg p.o., week 24): 26.8 g
- NOD mouse body weight ([4]; 0.1 mg/kg p.o., week 25): 26.4 g
- NOD mouse body weight ([4]; 0.1 mg/kg p.o., week 26): 26.7 g
- NOD mouse body weight ([4]; 0.1 mg/kg p.o., week 27): 26.5 g
- NOD mouse body weight ([4]; 0.2 mg/kg p.o., week 8): 21.25 g
- NOD mouse body weight ([4]; 0.2 mg/kg p.o., week 9): 21.75 g
- NOD mouse body weight ([4]; 0.2 mg/kg p.o., week 10): 22.06 g
- NOD mouse body weight ([4]; 0.2 mg/kg p.o., week 11): 22.99 g
- NOD mouse body weight ([4]; 0.2 mg/kg p.o., week 12): 24.21 g
- NOD mouse body weight ([4]; 0.2 mg/kg p.o., week 13): 24.4 g
- NOD mouse body weight ([4]; 0.2 mg/kg p.o., week 14): 24.34 g
- NOD mouse body weight ([4]; 0.2 mg/kg p.o., week 15): 24.53 g
- NOD mouse body weight ([4]; 0.2 mg/kg p.o., week 16): 25.01 g
- NOD mouse body weight ([4]; 0.2 mg/kg p.o., week 17): 24.33 g
- NOD mouse body weight ([4]; 0.2 mg/kg p.o., week 18): 24.89 g
- NOD mouse body weight ([4]; 0.2 mg/kg p.o., week 19): 25.29 g
- NOD mouse body weight ([4]; 0.2 mg/kg p.o., week 20): 24.9 g
- NOD mouse body weight ([4]; 0.2 mg/kg p.o., week 21): 25.41 g
- NOD mouse body weight ([4]; 0.2 mg/kg p.o., week 22): 26.36 g
- NOD mouse body weight ([4]; 0.2 mg/kg p.o., week 23): 25.8 g
- NOD mouse body weight ([4]; 0.2 mg/kg p.o., week 24): 25.63 g
- NOD mouse body weight ([4]; 0.2 mg/kg p.o., week 25): 26.12 g
- NOD mouse body weight ([4]; 0.2 mg/kg p.o., week 26): 27.15 g
- NOD mouse body weight ([4]; 0.2 mg/kg p.o., week 27): 26.56 g
- IC50 [5]: 0.000722 µM

Reference: patent US20080064668A1, “1,3-Diacylated, 26,27-Alkyl/Haloakyl Vitamin D3 Compounds and Methods of Use Thereof” (BioXell S.p.A., priority 2003, published 2008)
